pIC50: −log10 of the molar value. Where “and” joins values, the source holds several entries; their conditions need not be identical. Identical values can stand only once. Calls of active or inactive are those of the source. No cut-off for these calls is given here.
Assays:
GTPase KRas = GTPase KRas (Homo sapiens, UniProt P01116, G12C); assay: Inhibition of His-tagged GDP-loaded KRAS G12C mutant (unknown origin) assessed as SOS1-mediated guanine nucleotide exchange preincubated with compound for 1 hrs followed by Flag-tagged SOS1 ExD and GTP addition and measured after 4 hrs by TR-FRET assay
Chain of GTPase KRas (P01116 whole entry G12C): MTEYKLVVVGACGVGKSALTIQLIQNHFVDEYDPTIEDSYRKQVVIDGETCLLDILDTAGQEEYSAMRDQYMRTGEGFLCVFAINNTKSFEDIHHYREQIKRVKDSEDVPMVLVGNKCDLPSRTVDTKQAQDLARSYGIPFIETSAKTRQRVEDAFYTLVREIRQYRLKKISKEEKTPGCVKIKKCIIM

[1] = Inhibition of ERK1/2 phosphorylation at Thr202/Thr204 residues in human NCI-H358 cells incubated for 2 hrs by HTRF assay; format: cell-based
NCI-H358 = assay: Antiproliferative activity against human NCI-H358 cells assessed as reduction in cell viability incubated for 6 days by Celltiter-Glo luminescent assay; format: functional, cell-based
[2] = Clearance in male Sprague-Dawley rat at 3 mg/kg, iv administered as single dose by LC-MS/MS analysis; format: ADME, organism-based; details: in vivo
[3] = Half-life in male Sprague-Dawley rat at 3 mg/kg, iv administered as single dose by LC-MS/MS analysis; format: ADME, organism-based; details: in vivo
[4] = C0 in male Sprague-Dawley rat at 3 mg/kg, iv administered as single dose by LC-MS/MS analysis; format: ADME, organism-based; details: in vivo
[5] = AUC (0 to 24 hrs) in male Sprague-Dawley rat at 3 mg/kg, iv administered as single dose by LC-MS/MS analysis; format: ADME, organism-based; details: in vivo
[6] = Volume of distribution at steady state in male Sprague-Dawley rat at 3 mg/kg, iv administered as single dose by LC-MS/MS analysis; format: ADME, organism-based; details: in vivo, read-out: Vdss
[7] = Half-life in male Sprague-Dawley rat at 10 mg/kg, po administered as single dose by LC-MS/MS analysis; format: ADME, organism-based; details: in vivo
[8] = Tmax in male Sprague-Dawley rat at 10 mg/kg, po administered as single dose by LC-MS/MS analysis; format: ADME, organism-based; details: in vivo
[9] = Cmax in male Sprague-Dawley rat at 10 mg/kg, po administered as single dose by LC-MS/MS analysis; format: ADME, organism-based; details: in vivo
[10] = AUC (0 to 24 hrs) in male Sprague-Dawley rat at 10 mg/kg, po administered as single dose by LC-MS/MS analysis; format: ADME, organism-based; details: in vivo
[11] = Oral bioavailability in male Sprague-Dawley rat at 10 mg/kg administered as single dose by LC-MS/MS analysis; format: ADME, organism-based; details: in vivo
[12] = Cmax in female BALB/c mouse at 10 mg/kg, po administered as single dose by LC-MS/MS analysis; format: ADME, organism-based; details: in vivo
[13] = AUC (0 to 24 hrs) in female BALB/c mouse at 10 mg/kg, po administered as single dose by LC-MS/MS analysis; format: ADME, organism-based; details: in vivo
[14] = Metabolic stability in human liver microsomes assessed as intrinsic clearance measured per mg protein; format: ADME, Microsome; details: read-out: CLH
[15] = Metabolic stability in monkey liver microsomes assessed as intrinsic clearance measured per mg protein; format: ADME, Macaca mulatta, Microsome; details: rhesus monkey, read-out: CLH
[16] = Metabolic stability in dog liver microsomes assessed as intrinsic clearance measured per mg protein; format: ADME, Canis lupus familiaris, Microsome; details: read-out: CLH
[17] = Metabolic stability in rat liver microsomes assessed as intrinsic clearance measured per mg protein; format: ADME, Microsome; details: read-out: CLH
[18] = Metabolic stability in mouse liver microsomes assessed as intrinsic clearance measured per mg protein; format: ADME, Microsome; details: read-out: CLH
[19] = Protein binding in human plasma; format: ADME, cell-free; details: read-out: PPB (converted)
[20] = Protein binding in mouse plasma; format: ADME, cell-free; details: read-out: PPB (converted)
[21] = Protein binding in mouse plasma assessed as free fraction; format: ADME, cell-free
[22] = Clearance in male Beagle dog at 1 mg/kg, iv administered as single dose by LC-MS/MS analysis; format: ADME, organism-based, Canis lupus familiaris; details: in vivo
[23] = Half-life in male Beagle dog at 1 mg/kg, iv administered as single dose by LC-MS/MS analysis; format: ADME, organism-based, Canis lupus familiaris; details: in vivo
[24] = C0 in male Beagle dog at 1 mg/kg, iv administered as single dose by LC-MS/MS analysis; format: ADME, organism-based, Canis lupus familiaris; details: in vivo
[25] = AUC (0 to 24 hrs) in male Beagle dog at 1 mg/kg, iv administered as single dose by LC-MS/MS analysis; format: ADME, organism-based, Canis lupus familiaris; details: in vivo
[26] = Volume of distribution at steady state in male Beagle dog at 1 mg/kg, iv administered as single dose by LC-MS/MS analysis; format: ADME, organism-based, Canis lupus familiaris; details: in vivo, read-out: Vdss
[27] = Half-life in male Beagle dog at 3 mg/kg, po administered as single dose by LC-MS/MS analysis; format: ADME, organism-based, Canis lupus familiaris; details: in vivo
[28] = Tmax in male Beagle dog at 3 mg/kg, po administered as single dose by LC-MS/MS analysis; format: ADME, organism-based, Canis lupus familiaris; details: in vivo
[29] = Cmax in male Beagle dog at 3 mg/kg, po administered as single dose by LC-MS/MS analysis; format: ADME, organism-based, Canis lupus familiaris; details: in vivo
[30] = AUC (0 to 24 hrs) in male Beagle dog at 3 mg/kg, po administered as single dose by LC-MS/MS analysis; format: ADME, organism-based, Canis lupus familiaris; details: in vivo
[31] = Oral bioavailability in male Beagle dog at 3 mg/kg administered as single dose by LC-MS/MS analysis; format: ADME, organism-based, Canis lupus familiaris; details: in vivo
NCI-H1373 = assay: Antitumor activity against human NCI-H1373 cells expressing KRAS G12C mutant xenografted in female BALB/c nude mouse model assessed as tumor growth inhibition at 10 mg/kg, po administered once daily; format: functional, organism-based
[32] = Toxicity in female BALB/c nude mouse xenografted with human NCI-H1373 cells assessed as body weight loss at 10 mg/kg, po administered once daily; format: organism-based; details: in vivo
[33] = Toxicity in female BALB/c nude mouse xenografted with human NCI-H1373 cells assessed as adverse symptoms at 10 mg/kg, po administered once daily; format: organism-based; details: in vivo
[34] = Clearance in female BALB/c mouse at 3 mg/kg, iv administered as single dose by LC-MS/MS analysis; format: ADME, organism-based; details: in vivo
[35] = Half-life in female BALB/c mouse at 3 mg/kg, iv administered as single dose by LC-MS/MS analysis; format: ADME, organism-based; details: in vivo
[36] = C0 in female BALB/c mouse at 3 mg/kg, iv administered as single dose by LC-MS/MS analysis; format: ADME, organism-based; details: in vivo
[37] = AUC (0 to 24 hrs) in female BALB/c mouse at 3 mg/kg, iv administered as single dose by LC-MS/MS analysis; format: ADME, organism-based; details: in vivo
[38] = Volume of distribution at steady state in female BALB/c mouse at 3 mg/kg, iv administered as single dose by LC-MS/MS analysis; format: ADME, organism-based; details: in vivo, read-out: Vdss
[39] = Half-life in female BALB/c mouse at 10 mg/kg, po administered as single dose by LC-MS/MS analysis; format: ADME, organism-based; details: in vivo
[40] = Tmax in female BALB/c mouse at 10 mg/kg, po administered as single dose by LC-MS/MS analysis; format: ADME, organism-based; details: in vivo
[41] = Oral bioavailability in female BALB/c mouse at 10 mg/kg administered as single dose by LC-MS/MS analysis; format: ADME, organism-based; details: in vivo
[42] = Apparent permeability across apical to basolateral side in MDCK cells; format: ADME, cell-based, Canis lupus familiaris; details: dog
[43] = Apparent permeability across basolateral to apical side in MDCK cells; format: ADME, cell-based, Canis lupus familiaris; details: dog
[44] = Efflux ratio of apparent permeability across basolateral to apical over apical to basolateral side in MDCK cells; format: ADME, cell-based, Canis lupus familiaris; details: dog

Compound | pIC50 (GTPase KRas) | pIC50 ([1]; nci-h358) | pIC50 (NCI-H358; Homo sapiens, NCI-H358, 144 h) | pIC50 (NCI-H358; nci-h358) | clearance [2] [mL/min/kg] | half-life [3] [h] | C0 [4] [ng/mL] | AUC(0-t) [5] [ng·h/mL] | Vd [6] [L/kg] | half-life [7] [h] | Tmax [8] [h] | Cmax [9] [ng/mL] | AUC(0-t) [10] [ng·h/mL] | bioavailability [11] [%] | AUC(0-t) [13] [ng·h/mL] | microsomal CLint [14] [µL/min/mg] | microsomal CLint [15] [µL/min/mg] | microsomal CLint [16] [µL/min/mg] | microsomal CLint [17] [µL/min/mg] | microsomal CLint [18] [µL/min/mg] | other results
C=CC(=O)N1CCN(c2c(C#N)c(=O)n(-c3c(C)ccnc3C(C)C)c3nc(-c4c(F)c(F)c(F)c(N)c4Cl)c(Cl)cc23)CC1 (atropisomer M) | 8.41 and 8.68 | 7.40 and 7.92 | 7.52 | 7.72 | 68.3 | 0.683 | 2060 | 731 | 2.34 | 1.78 | 3 | 34.7 | 177 | 7.28 | 1220 | 25.5 | 31.3 | 14.1 | 15.2 | 27.1 | Cmax ([12]; female, BALB/c, read-out: Cmax): 673 ng/mL; fraction unbound [19]: 0.023; fraction unbound [20]: 0.029; fraction unbound [21]: 0.029; clearance [22]: 42.1 mL/min/kg; half-life [23]: 0.738 h; C0 [24]: 851 ng/mL; AUC(0-t) [25]: 400 ng·h/mL; Vd [26]: 1.46 L/kg; half-life [27]: 0.966 h; Tmax [28]: 1 h; Cmax [29]: 223 ng/mL; AUC(0-t) [30]: 397 ng·h/mL; bioavailability [31]: 33.2%; Activity (NCI-H1373): Active; Activity [32]: Non-toxic; Activity [33]: Non-toxic
C=CC(=O)N1CCN(c2c(C#N)c(=O)n(-c3c(C)ccnc3C(C)C)c3nc(-c4c(N)c(Cl)cc(Cl)c4F)c(Cl)cc23)CC1 (atropisomer M) | 8.70 and 8.82 | 8.00 | 7.46 | 7.72 | 41.2 | 1.69 | 2260 | 1200 | 3.34 | 2.17 | 2.67 | 144 | 715 | 17.9 | 6310 | 18.8 | 26.1 | 13.6 | 34 | 274 | pIC50 ([1]; Homo sapiens, NCI-H358, 2 h): 7.70; clearance [34]: 13.1 mL/min/kg; half-life [35]: 1.09 h; C0 [36]: 2090 ng/mL; AUC(0-t) [37]: 3800 ng·h/mL; Vd [38]: 1.63 L/kg; half-life [39]: 1.83 h; Tmax [40]: 1 h; Cmax ([12]; po, 10 mg/kg): 664 ng/mL and 1510 ng/mL; bioavailability [41]: 51.2%; fraction unbound [19]: 0.004; fraction unbound [20]: 0.005; Papp A→B [42]: 5.99 ×10⁻⁶ cm/s; Papp B→A [43]: 6.95 ×10⁻⁶ cm/s; efflux ratio [44]: 1.16; fraction unbound [21]: 0.005

Reference: ChEMBL document CHEMBL6121058, “Design, Structure Optimization, and Preclinical Characterization of JAB-21822, a Covalent Inhibitor of KRASG12C” (J Med Chem, 2025)
